Series [1] concerns HL-60. Nature of the series: Cytotoxicity against human HL60 cells assessed as decrease in cell viability after 72 hrs by MTT assay. Type of series: functional, cell-based. As to conditions: HL-60, 72 h. For orientation: Tetrazolium dyes change colour on reduction, which living cells bring about.
Series [2] concerns MCF7. Nature of the series: Cytotoxicity against human MCF7 cells assessed as decrease in cell viability by MTT assay. Type of series: functional, cell-based.
In series [3] the test system is BGC-823. The series is described as follows: Cytotoxicity against human BGC823 cells assessed as decrease in cell viability by MTT assay. The format is functional, cell-based.
The test system of series [4] is MCF7. Nature of the series: Cytotoxicity against human MCF7 cells assessed as decrease in cell viability after 72 hrs by MTT assay. Type of series: functional, cell-based. To be noted: MCF7, 72 h.
Series [5] has as its system HeLa. The series is described as follows: Cytotoxicity against human HeLa cells assessed as decrease in cell viability by MTT assay. The format is functional, cell-based.
Series [6] concerns HL-60. The series is described as follows: Cytotoxicity against human HL60 cells assessed as decrease in cell viability by MTT assay. The format is functional, cell-based.
The test system of series [7] is A549. The series is described as follows: Cytotoxicity against human A549 cells assessed as decrease in cell viability after 72 hrs by MTT assay. The format is functional, cell-based. To be noted: A549, 72 h.
The subject of series [8] is KB. The series is described as follows: Cytotoxicity against human KB cells assessed as decrease in cell viability by MTT assay. Type of series: functional, cell-based.
Series [9] concerns MKN-28. Nature of the series: Cytotoxicity against human MKN28 cells assessed as decrease in cell viability after 72 hrs by MTT assay. The format is functional, cell-based. As to conditions: MKN-28, 72 h.
Series [10] has as its system P388. Nature of the series: Cytotoxicity against mouse P388 cells assessed as decrease in cell viability after 72 hrs by MTT assay. Type of series: functional, cell-based. To be noted: P388, 72 h.
Series [11] in a line: Toxicity in rat ear inflammation model. To be noted: in vivo.
Series [12] relates to Jurkat. The series is described as follows: Cytotoxicity against human Jurkat cells assessed as decrease in cell viability. The format is functional, cell-based.
The test system of series [13] is HL-60. The series is described as follows: Cytotoxicity against human HL60 cells assessed as decrease in cell viability. Type of series: functional, cell-based.
In series [14] the test system is HCT-116. The series is described as follows: Cytotoxicity against human HCT116 cells assessed as decrease in cell viability. The format is functional, cell-based.
The test system of series [15] is NIH3T3. The series is described as follows: Cytotoxicity against mouse NIH/3T3 cells assessed as decrease in cell viability. The format is functional, cell-based.
A short description of series [16]: Cytotoxicity against human Re-01 cells assessed as decrease in cell viability. The format is functional, cell-based.
Series [17] in a line: Cytotoxicity against human OVCAR1 cells assessed as decrease in cell viability. The format is functional, cell-based.
A short description of series [18]: Cytotoxicity against human SK-MEL-8 cells assessed as decrease in cell viability. Type of series: functional, cell-based.
Series [19] in a line: Cytotoxicity against human Col-06 cells assessed as decrease in cell viability. The format is functional, cell-based.
A short description of series [20]: Cytotoxicity against human Bre01 cells assessed as decrease in cell viability. Type of series: functional, cell-based.
Series [21] relates to MDCK. Nature of the series: Cytotoxicity against MDCK cells assessed as decrease in cell viability. The format is functional, cell-based. To be noted: Canis lupus familiaris.
Series [22] concerns HeLa. Nature of the series: Cytotoxicity against human HeLa cells assessed as decrease in cell viability. The format is functional, cell-based.
Series [23] is described as follows: Half life of the compound. The format is physicochemical.

SMILES strings stand for the structures. Converted amounts (≈) assume the structure as drawn.

The source of these data is ChEMBL document CHEMBL4350986, “Triptolide: Medicinal chemistry, chemical biology and clinical progress” (Eur J Med Chem, 2019).

`CC(C)[C@]12O[C@H]1[C@@H]1O[C@]13[C@]1(O[C@H]1C[C@@]1(O)C4=C(CC[C@]31C)C(=O)OC4)[C@@H]2O`: the IC50 (as a rule, the concentration that inhibits the measured activity by half) in series [1] was 0.04 to 0.2 nM; in [2], 1050 nM; in [3] it was 1.5 µM; in [4] it was 0.04 to 0.2 nM; in [5], 340 nM; in series [6] it was 470 nM. Besides, the IC50 in series [7] was 0.04 to 0.2 nM; in [8], 300 nM; in [9], 0.04 to 0.2 nM; in series [10] it was 0.04 to 0.2 nM.
As for `CC(C)[C@]1(O)[C@H](O)[C@@H]2O[C@]23[C@]2(O[C@H]2C[C@H]2C4=C(CC[C@@]23C)C(=O)OC4)[C@@H]1O`, the 50% lethal dose (LD50) – broadly, the dose expected to kill half of the subjects tested – in series [11] is > 500 mg/kg.
Consider `CC(C)C1=C[C@@H]2O[C@@]23[C@@]2(C)CCC4=C(COC4=O)[C@@H]2C[C@@H]2O[C@@]23C1=O`, for which the IC50 is 31 µM in [12] and 16 µM in series [13].
On to `C[C@]12CCC3=C(COC3=O)[C@@H]1C[C@@H]1O[C@@]13C(=O)[C@@]1(CCCC(=O)O)O[C@H]1[C@@H]1O[C@]123`, for which the half-inhibitory concentration (IC50) in series [14] amounted to 560 nM.
As for `C[C@@H]([C@@H]1CO1)[C@]12O[C@H]1[C@@H]1O[C@@]13[C@@]1(C)CCC4=C(COC4=O)[C@@H]1C[C@@H]1O[C@@]13C2=O`, in series [15], the IC50 turned out to be 40 nM.
As to `C[C@]12CCC3=C(COC3=O)[C@@H]1C[C@@H]1O[C@@]13[C@H](O)[C@@]1(CCO)O[C@H]1[C@@H]1O[C@@]132`, the IC50 in series [14] came out at 74.7 nM.
Consider `CC(C)[C@]12O[C@H]1[C@@H]1O[C@]13[C@]1(O[C@H]1C[C@H]1C4=C(CC[C@@]13C)C(=O)O[C@H]4O)[C@@H]2O`, for which the IC50 in series [6] is 52600 nM; in [8] it was 46500 nM.
`CC(C)[C@]12O[C@H]1[C@@H]1O[C@@]13[C@@]1(C)[C@H](O)CC4=C(COC4=O)[C@@H]1C[C@@H]1O[C@@]13[C@@H]2O`: the IC50 in [2] turned out to be 870 nM; in series [3] it was 7.65 µM; in series [5] it was 320 nM; in series [6] it was 70 nM; in [8], 120 nM.
Consider `C[C@]12CCC3=C(COC3=O)[C@@H]1C[C@@H]1O[C@@]13C(=O)[C@H]1O[C@H]1[C@@H]1O[C@]123`, for which, in series [14], the IC50 was 537 nM.
For the compound `CC(C)[C@]12O[C@H]1[C@@H]1O[C@]13[C@]1(O[C@H]1C[C@H]1C4=C(CC[C@@]13C)C(=O)OC4)[C@@H]2NC=O`, the half-inhibitory concentration (IC50) in series [14] was 354 nM.
The same measure, in the same setting: as for `C[C@]12CCC3=C(COC3=O)[C@@H]1C[C@@H]1O[C@@]13[C@@H](O)[C@@]1(CCO)O[C@H]1[C@@H]1O[C@@]132`, the figure is 70.7 nM.
Consider `CC(C)[C@]1(O)[C@H](N=C=S)[C@@H]2O[C@]23[C@]2(O[C@H]2C[C@H]2C4=C(CC[C@@]23C)C(=O)OC4)[C@@H]1O`, for which the IC50 in series [16] turned out to be 0.06 µg/mL (≈ 0.143 µM); in [17], 0.02 µg/mL (≈ 0.0477 µM); in series [18], 0.09 µg/mL (≈ 0.215 µM); in [19], 0.03 µg/mL (≈ 0.0715 µM); in series [20], 0.055 µg/mL (≈ 0.131 µM).
Consider `CC[C@@H](CO)[C@]12O[C@H]1[C@@H]1O[C@@]13[C@@]1(C)CCC4=C(COC4=O)[C@@H]1C[C@@H]1O[C@@]13C2=O`, for which the IC50 in series [21] is 270 nM; in series [22], 2 nM; in [12] it was < 0.04 µM; in series [15], 10 nM.
With `CCCNC(=O)OCCC[C@]12O[C@H]1[C@@H]1O[C@@]13[C@@]1(C)CCC4=C(COC4=O)[C@@H]1C[C@@H]1O[C@@]13C2=O`, in [14], the half-maximal inhibitory concentration (IC50) turned out to be 8.4 nM.
As for `CC(C)C1=C[C@H]2O[C@]23[C@@]2(C)CCC4=C(COC4=O)[C@@H]2C[C@@H]2O[C@@]23C1=O`, the IC50 in [12] and in series [13] was 16 µM each time.
For the compound `CC(C)[C@]12O[C@H]1[C@@H]1O[C@]13[C@]1(O[C@H]1C[C@H]1C4=C(CC[C@@]13C)C(=O)OC4)[C@@H]2N`, in series [14], the half-inhibitory concentration (IC50) worked out at 772 nM.
As for `CC(C)[C@]12O[C@H]1[C@@H]1O[C@]13[C@]1(O[C@H]1C[C@H]1C4=C(CC[C@@]13C)C(=O)OC4)[C@@H]2OCOP(=O)([O-])[O-].[Na+].[Na+]` [MINNELIDE], the half-life – broadly, the time needed for the level to fall by half in the phase considered – in [23] is 2 min.
With `CC(C)[C@]12O[C@H]1[C@@H]1O[C@]13[C@]1(O[C@H]1C[C@H]1C4=C(CC[C@@]13C)C(=O)OC4)[C@@H]2O` [TRIPTOLIDE], the half-inhibitory concentration (IC50) in [21] was 1200 nM; in series [22], 87 nM; in series [16], 0.03 µg/mL (≈ 0.0832 µM); in series [12] it was 0.14 µM; in series [17] it was 0.006 µg/mL (≈ 0.0166 µM); in [18], 0.02 µg/mL (≈ 0.0555 µM). Besides, the IC50 in series [19] was 0.02 µg/mL (≈ 0.0555 µM); in series [20], 0.04 µg/mL (≈ 0.111 µM); in series [14], 4.7 nM; in [15], 50 nM.
